# From patent US20210330735A1, “COMPOSITIONS AND METHODS FOR THE TREATMENT OF TRAUMATIC OPTIC NEUROPATHY” (Stealth BioTherapeutics Corp, priority 2018, published 2021)
# Values joined by “and” are separate entries in the source; they are usually repeats but may differ in a detail not shown here. Equal entries are not always repeated. Non-standard residues stand in square brackets, D forms with d. Residues, ends and D or L forms follow the SMILES beside them. No end group written: not given here. Dmt = Cc1cc(O)cc(C)c1C[C@H](N)C(=O)O
# Legend:
# [1] = system: several mammalian cell types; settings: energy-independent manner; cited from earlier work
# [2] = system: subjects suspected of having or diagnosed as having TON; experiment: Treatment of subjects with TON, Example 1 (predicted); assay type: in vivo; settings: for effect in combination with one or more additional therapeutic agents: compared with peptide or additional agent alone, expected; for severity of symptoms associated with TON: daily 1 mg/kg body weight, predicted
# Procedure: Subjects suspected of having or diagnosed as having TON receive daily administrations of 1 mg/kg body weight of aromatic-cationic peptide, such as 2′6′-Dmt-D-Arg-Phe-Lys-NH2, Phe-D-Arg-Phe-Lys-NH2, or D-Arg-2′6′-Dmt-Lys-Phe-NH2, or a pharmaceutically acceptable salt thereof (such as an mono, bis, or tri-acetate salt, a tartrate salt, a fumarate salt, a mono, bis, or tri-HCl salt, a mono, bis, or tri-tosylate salt, or a mono, bis, or tri-trifluoroacetate salt) alone or in combination with one or more additional therapeutic agents for the treatment or prevention of TON. Peptides and/or additional therapeutic agents are administered orally, topically, systemically, intravenously, subcutaneously, intravitreally, intraperitoneally, or intramuscularly according to methods known in the art. Subjects will be evaluated weekly for the presence and/or severity of signs and symptoms associated with TON including, but not limited to, e.g., vision loss, blurred vision, RGC damage, scotoma, decreased color sensation, uveitis, optic neuritis, eye pain, optic nerve avulsion, optic nerve transection, optic nerve sheath hemorrhage, orbital hemorrhage, choroidal rupture, and commotio retinae. Treatments are maintained until such a time as one or more signs or symptoms of TON are ameliorated or eliminated.
# [3] = system: retinal ganglion cells (RGCs); experiment: Safety and efficacy of acute intravitreal administration, PERG before and after SI-TON, Example 5; assay type: in vivo, C57BL/6 J mice
# Procedure: To determine the safety of acute intravitreal administration of aromatic-cationic peptides in vivo, SI-TON was induced in 3-month-old C57BL/6 J mice with a Branson Digital Sonifier 450 (Branson) by a 3 mm microtip probe (Branson) in an acoustic soundproof enclosure chamber, as described in Example 2. Fifteen minutes following the induction of TON, a group of ten mice were administered 1.3 μL of 100 nM D-Arg-2′6′-Dmt-Lys-Phe-NH2 (MTP-131) intravitreally in the left eye (OS, treated). A different subset of mice was administered control PBS solution intravitreally in the left eye (OS, treated) followed by subcutaneous injection with 5 mg/kg D-Arg-2′6′-Dmt-Lys-Phe-NH2 fifteen minutes post-injury. A baseline recording of the mice visual function was recorded using electrophysiological recording of RGCs through PERG prior to SI-TON induction and the functional visual outcome of the mice was tested again 4 weeks post-injury.
# [4] = system: retinal ganglion cells (RGCs); experiment: Sequential administration study, PERG after US-TON (SI-TON), Example 4; assay type: in vivo, mice; settings: 5 mg/kg 4-AP added to any formulation from two weeks post-injury, two and four weeks post treatment
# Procedure: (§1) The sequential administration study was conducted as depicted in FIG. 4. A baseline visual function of retinal ganglion cells (RGCs) was obtained using pattern electroretinography (PERG) to record the electrical activity of RGCs, Optical Coherence Tomography (OCT) to evaluate the thickness of the Retinal Nerve Fiber Layer (RNFL), and Heidelberg Retina Topography (HRT) to evaluate subtle changes in the optic nerve caused by trauma. At day zero, US-TON (SI-TON) was induced by a microtip probe sonifier placed on the supraorbital ridge directly above the entrance of the optic nerve into the bony canal, as described in Example 2.
# (§2) On the first day, six mice were administered either a bolus subcutaneous injection of 3 mg/kg ([…]) Etanercept (Enbrel™, Groups 1 and 2), 10 mg/kg (300 μg per 30 g mouse) D-Arg-2′6′-Dmt-Lys-Phe-NH2(MTP-131, Groups 3 and 4), or PBS (Groups 5 and 6), followed by daily injections of the drug formulation for a period of 3 days. On the sixth day, Groups 1 and 2 were administered a bolus subcutaneous injection of 10 mg/kg (300 μg per 30 g mouse) D-Arg-2′6′-Dmt-Lys-Phe-NH2; Groups 3 and 4 were administered a bolus subcutaneous injection of 3 mg/kg ([…]) Etanercept; and Groups 5 and 6 received PBS, followed by daily injections of the drug formulation for three days. […]
# [5] = system: Retinal Nerve Fiber Layer (RNFL) and Inner Plexiform Layer (IPL); experiment: Sequential administration study, OCT thickness of RNFL and IPL after US-TON (SI-TON), Example 4; assay type: in vivo, mice; settings: four weeks after treatments
# Procedure: as §1, §2
# [6] = system: retinal ganglion cells (RGC); experiment: RGC survival in sonication-induced TON (SI-TON) model, Example 2; assay type: in vivo, mice; settings: two weeks following injury, early use, peptide 2 mg/kg SQ for 7 days
# Description: SI-TON is induced by a microtip probe sonifier placed on the supraorbital ridge directly above the entrance of the optic nerve into the bony canal, as described in Tao, W. et al., Scientific Reports (2017) 7: 11779 (incorporated herein by reference). An ultrasonic pulse is then delivered to the optic nerve. After injury, the number of RGCs in the retina as well as visual function measured by PERG steadily decrease over a two-week period. […] The SI-TON model is capable of delivering a non-contact concussive injury to the optic nerve and induce TON in mice.
# Two models for TON were utilized in this example: a novel sonication-induced TON (SI-TON) that closely recapitulates the clinical manifestations of indirect TON, and optic nerve crush-induced TON (ONC-TON) which reflects a more severe form of TON often resulting in axotomized nerve fibers and ruptured nervous vasculature. […]
# (§3) A baseline recording of visual function by pattern electroretinogram (PERG) and imaging of the optic disc was performed prior to inducing SI-TON or ONC-TON. […] Euthanized animals were evaluated for RGC dropout by flat mount. […]
# To test if a combinatorial strategy results in improved visual outcomes, a therapeutic agent, such as a TNF-alpha inhibitor (e.g., etanercept), D-Arg-2′6′-Dmt-Lys-Phe-NH2, or a combination of these pharmaceutical agents was assessed. […] Euthanized animals were evaluated for RGC dropout by flat mount. […]
# [7] = system: retinal ganglion cells (RGC); experiment: RGC survival in optic nerve crush-induced TON (ONC-TON) model, Example 2; assay type: in vivo, rat; settings: two weeks following injury, early use, peptide 2 mg/kg SQ for 7 days
# Description: ONC-TON is induced by exposing the optic nerve of an adult rat and creating a small opening in the meninges of the nerve, as described in Solomon, A. et al., J. of Neurosci. Methods (1996) 70: 21-25, (incorporated herein by reference). The opening is created about 2-3 mm behind the eye globe. A glass dissector is introduced through the opening and is used to cut all the axons through the whole width of the nerve. Complete […] of the optic nerve axons is achieved, while retaining the continuity of the meninges and avoiding damage to the nerve's vascular supply. Transection can be confirmed by transillumination showing a complete gap in the continuity of the nerve axons, and by both morphological and electrophysiological criteria. The opening created in the ‘meningeal tube’ can be used to inject substances that may be of benefit in recovery, rescue and/or regeneration of the injured axons. […]
# as §3
# To test if a combinatorial strategy results in improved visual outcomes, a therapeutic agent, such as a TNF-alpha inhibitor (e.g., etanercept), D-Arg-2′6′-Dmt-Lys-Phe-NH2, or a combination of these pharmaceutical agents was assessed. […]
compound,measurement,setting,value
2′6′-Dmt-D-Arg-Phe-Lys-NH2,penetration of the plasma membrane,[1],readily penetrates the plasma membrane
same,effect in combination with one or more additional therapeutic agents,[2],synergistic effects
same,severity of symptoms associated with TON,[2],reduced severity or elimination of one or more symptoms associated with TON
F[dR]FK-NH2,effect in combination with one or more additional therapeutic agents,[2],synergistic effects
same,severity of symptoms associated with TON,[2],reduced severity or elimination of one or more symptoms associated with TON
Cc1cc(O)cc(C)c1C[C@H](NC(=O)[C@H](N)CCCNC(=N)N)C(=O)N[C@@H](CCCCN)C(=O)N[C@@H](Cc1ccccc1)C(N)=O [D-Arg-2′6′-Dmt-Lys-Phe-NH2] (H-[dR][Dmt]KF-NH2),safety of direct application to the eye,"[3]; acute intravitreal injection, 1.3 μL of 100 nM",did not show evidence of toxicity
same,"baseline electrophysiological recording of RGCs (PERG), treated vs control","[3]; uninjured baseline, left eye",substantially similar
"Nc1ccncc1 [4-AP, 4-aminopyridine]",RGC electrical activity measured by PERG,[4],significantly increased RGC electrical activity
same,RNFL and IPL thickness by OCT,[5],did not significantly improve
etanercept,percent RGC survival,[6],97.08% and 97.08±2.21%
same,percent RGC survival,[7],48.94% and 48.94±1.94%
